Measurements reported in US7018989B2, “Chemical compounds” (University College Cardiff Consultants, LTD, priority 1995, dated 2006).
Read-outs that look alike come from different tables or passages of the source.

What was measured:
III-B strain of HIV-1 = test: microbe, parasite or virus in culture; format: cell-based
Procedure: (§1) C8166 cells. Cells were grown in RPMI 1640 with 10% calf serum. 4×10^4 cells per microtiter plate well were mixed with 5-fold dilutions of compound prior to addition of 10 CCID50 units of III-B strain of HIV-1 and incubated for 5–7 days (Betbeder et al. Antiviral Chem. Chemother. 1, 241–247, 1990). Formation of syncytia was examined from 2 days post-infection. Culture fluid was collected at 5–7 days and gp120 antigen production measured by ELISA (Mahmood and Hay, J. Immunol. Meth., 151, 9–13, 1992). […] Cell viability of infected and uninfected cells were assessed by the MTT-Formazen method (Pauwels et al. J. Virol. Meth. 20, 309–321, 1988).
(§2) Each assay was carried out in duplicate, on at least two separate occasions, and data quoted are the average of each separate assay.

[1] = Toxicity in C8166 cells (MTT-Formazen); format: cell-based; conditions: human, Table 3
Procedure: as §1, §2

HIV-1 [2] = test: Inhibition of HIV-1 in MT4 cells; format: cell-based; conditions: Human immunodeficiency virus 1, MT4; Table 6; mean of two or more repeat experiments; read-out: HIV1 MT4: EC50 for inhibition of HIV-1 in MT4 cells
Procedure: (§3) Cells were infected with HIV-1 as previously described [Balzarini et al. AIDS (1991), 5, 21–28]. Briefly, 5×10^5 cells per milliliter were infected with HIV-1 or HIV-2 at 100 CCID50 (50% cell culture infective dose) per milliliter of cell suspension. Then 100 μL of the infected cell suspension was transferred to microtiter plate wells and mixed with 100 μL of the appropriate dilutions of the test compounds. After 4 days giant cell formation was recorded microscopically in the HIV-infected cell cultures [CEM], and after 5 days the number of viable cells was determined by trypan blue staining of the HIV-infected cell cultures [MT4].
(§4) The data columns are, in order: • HIV1 MT4: EC50 in μM for inhibition of HIV-1 in MT4 cells. • HIV2 MT4: EC50 in μM for inhibition of HIV-2 in MT4 cells. • CC50 MT4: CC50 in μM for toxicity to MT-4 cells. • HIV1 CEM: EC50 in μM for inhibition of HIV-1 in CEM cells. • HIV2 CEM: EC50 in μM for inhibition of HIV-2 in CEM cells. • HIV2 CEM-TK-: EC50 in μM for inhibition of HIV-2 in CEM/TK^− cells. • CC50 CEM: CC50 in μM for toxicity to CEM cells. • EC50 MSV: EC50 in μM for inhibition of MSV • MCC MSV: Minimum cytotoxic concentration in MSV assay

HIV-2 [3] = test: Inhibition of HIV-2 in MT4 cells; format: cell-based; conditions: Human immunodeficiency virus 2, MT4, read-out: HIV2 MT4: EC50 for inhibition of HIV-2 in MT4 cells
Procedure: as §3, §4

Toxicity to MT-4 cells = format: cell-based, human; conditions: human, mock-infected MT-4 cells; Table 6; mean of two or more repeat experiments; read-out: CC50 MT4: CC50 for toxicity to MT-4 cells
Procedure: as §3, §4

HIV-1 [4] = test: microbe, parasite or virus in culture; conditions: Human immunodeficiency virus 1, CCRF-CEM
Outline: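 MT4 or CEM cells at 5×10^5/mL were infected with HIV-1 or HIV-2 at 100 CCID50/mL and cultured with compound dilutions. CEM endpoint: microscopic giant-cell formation after 4 days; MT4 endpoint: viable-cell count by trypan blue after 5 days. EC50 and CC50 in μM.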

HIV-2 [5] = test: Inhibition of HIV-2 in CEM cells (giant cell formation); format: cell-based
Outline: (§5)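 Infection used 100 CCID50 per mL on 5×10^5 cells/mL, followed by exposure to serial compound dilutions. Read-out: microscopic giant cell scoring after 4 days (CEM); trypan blue viable cell count after 5 days (MT-4).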

HIV-2 [6] = test: Inhibition of HIV-2 in CEM/TK- cells; format: cell-based; conditions: Human immunodeficiency virus 2, CEM-TK(-)
Outline: as §5

Toxicity to CEM cells = format: cell-based, human; conditions: human, mock-infected CEM cells; Table 6; mean of two or more repeat experiments
HIV RT = HIV RT (Human immunodeficiency virus type 1 group M subtype B, UniProt P03366); test: Inhibition of HIV reverse transcriptase; format: biochemical; conditions: Table 4
hog liver esterase = test: Incubation with hog liver esterase; format: in vitro ADME; conditions: 1 mM, 37° C., Tris-HCl buffer containing 5 mM MgCl2
Procedure: This metabolites co-eluted with the predominant metabolite (X) that was found in the cell extracts after incubation of the intact cells with [^3H] 324. metabolite X corresponds to a compound of formula (10), wherein Y is oxygen, X^1 is NH, X^2 is oxygen, B is thymine, R^1 is Me, R^2 is hydrogen.

[7] = tested on: Moloney Sarcoma Virus [MSV]; test: MSV-induced tumour formation and survival in NMRI mice; format: in vivo; conditions: MSV infected mice
Procedure: Drug doses are 50[low ] or 200 [high] mg/kg/day given i.p. for 4 days starting 1 hour before MSV inoculation.
In Vivo Testing Inhibitory Effects of Test Compounds on the Initiation of MSV-Induced Tumour Formation in NRMI Mice and on the Survival of MSV Innoculated NMRI Mice.
Mice infected with Moloney Sarcoma Virus [MSV] were treated daily with either placebo, or d4T [at one of two doses] or with compound 324 at one of the same [equi-molar] doses.
Two- to three-day old NMRI mice (weighing—2 gram) were innoculated subcutaneously (s.c.) in the left hind leg with 50 μl MSV (100 foci forming units, as measured by in vitro determination of the virus-induced transformation of murine C3H embryo fibroblast cells). At 4 to 5 days post-infection, tumours develop and rapidly increase in volume upon further aging of the mice. Within 10 to 12 days post-infection, mice (then weighing—5 to 6 gram) die from the viral infection. Drug treatment started 1 hour prior to infection of the virus, and further compound administration was given daily i.p. for an additional 3 days. The mean day of tumour initiation (±standard deviation) and the mean day of survival of the mice (±standard deviation) was calculated and statistical significance of the average delay of tumour formation and the mean day of survival in the treated groups versus the untreated (control) group was assessed by two-tailed student's t-test.

[8] = tested on: HIV-1 (GB8 or IIIB strains); test: Anti-HIV-1 activity in JM cells; format: cell-based; conditions: Human immunodeficiency virus 1, IIIB; HIV1 in JM; Table 2
Procedure: as §1
JM cells JM cells, which are relatively resistant to the antiviral effects of AZT and a number of its derivatives, were infected with HIV-1 strains and the antiviral and toxic effects of compounds assessed as for C8166 cells. Both GB8 or IIIB strains of HIV1 were used, with no delectable differences in the end-points noted.
as §2

HIV1 d4T-Sensitive = test: HIV1 in HeLa cells, d4T-sensitive strain; format: cell-based, HIV-1; conditions: Human immunodeficiency virus 1, HeLa; Table 4
HIV1 d4T-Resistant = test: HIV1 in HeLa cells, d4T-resistant strain; format: cell-based, HIV-1; conditions: Human immunodeficiency virus 1, HeLa, read-out: EC50 HeLa HIV1 d4T-Resistant
[9] = Human immunodeficiency virus 1, C8166, Table 4, read-out: EC50 8166 HIV1
[10] = Human immunodeficiency virus 1, HIV1 in C8166 cells, Table 3, read-out: Activity EC50
[11] = 50 [low] or 200 [high] mg/kg/day i.p. for 4 days

With `COC(=O)C(C)NP(=O)(OCC1C=CC(n2cc(C)c(=O)[nH]c2=O)O1)Oc1ccccc1` (stereo not drawn) [Compound 324, 2′,3′-dideoxy-2′,3′-didehydrothymidine 5′-(phenyl N-methoxyalaninyl) phosphoramidate] the “Selectivity CC50/EC50 × 10^3” value (III-B strain of HIV-1; HIV1 in C8166 cells, Table 3) was 46.9 × 10^3, the EC50 (III-B strain of HIV-1; [9]) was 3.2 nM and the EC50 (III-B strain of HIV-1; [10]) was 3.2 nM. For the same compound, the CC50 [1] was 150000 nM, the EC50 (HIV-1 [2]) was 81 nM and the EC50 (HIV-2 [3]) was 53 nM. It also gave a CC50 at 5 days (Toxicity to MT-4 cells) greater than 100000 nM, an EC50 (HIV-1 [4]; read-out: EC50 CEM HIV1) of 180 nM and an EC50 (HIV-1 [4]; read-out: HIV1 CEM: EC50 for inhibition of HIV-1 in CEM cells) of 75 nM. For the same compound, the EC50 (HIV-2 [5]; Human immunodeficiency virus 2, CCRF-CEM, read-out: HIV2 CEM: EC50 for inhibition of HIV-2 in CEM cells) was 75 nM, the EC50 (HIV-2 [6]; read-out: EC50 CEM TK− HIV2) was 80 nM and the EC50 (HIV-2 [6]; read-out: HIV2 CEM-TK-: EC50 for inhibition of HIV-2 in CEM/TK^− cells) was 75 nM. The CC50 (Toxicity to CEM cells) was 100000 nM, the EC50 (HIV RT) was 50000 nM and the “metabolite formation with hog liver esterase” value (hog liver esterase) was “time-dependent formation of a metabolite was observed”. For the same compound, the “effect on tumour appearance” value ([7]; high-dose (200 mg/kg/day i.p. for 4 days)) was “significant effect” and the “effect on tumour appearance (first disease parameter)” value ([7]; low dose (50 mg/kg/day i.p. for 4 days)) was “an effect”.

In the case of `Cc1cn([C@H]2C[C@H](N=[N+]=[N-])[C@@H](CO)O2)c(=O)[nH]c1=O` [AZT, 3′-azido-3′-deoxythymidine, reference compound], the EC50 (III-B strain of HIV-1; [9]) is reported as 8 nM, the EC50 (HIV-1 [4]; read-out: EC50 CEM HIV1) is reported as 3 nM and the EC50 (HIV-2 [6]; Table 4, read-out: EC50 CEM TK− HIV2) is reported as greater than 100000 nM. For the same compound, the “EC50 HIV RT” value (HIV RT) was “Inactive”.

With `Cc1cn([C@H]2C=C[C@@H](CO)O2)c(=O)[nH]c1=O` [d4T, 2′,3′-dideoxy-2′,3′-didehydrothymidine, reference compound] the “Selectivity CC50/EC50 × 10^3” value (III-B strain of HIV-1) was 0.6 × 10^3, the EC50 (III-B strain of HIV-1; [9]) was 80 nM and the EC50 (III-B strain of HIV-1; Human immunodeficiency virus 1, HIV1 in C8166, Table 2, read-out: EC50 C8166) was 80 nM. For the same compound, the EC50 (III-B strain of HIV-1; [10]) was 80 nM, the CC50 [1] was 50000 nM and the EC50 [8] was 800 nM. It also gave an EC50 (HIV-1 [4]; read-out: EC50 CEM HIV1) of 500 nM, an EC50 (HIV-2 [5]; Human immunodeficiency virus 2, CEM-TK(-), read-out: EC50 CEM TK^−) of 1200 nM and an EC50 (HIV-2 [6]; read-out: EC50 CEM TK^−) greater than 100000 nM. The EC50 (HIV-2 [6]; read-out: EC50 CEM TK− HIV2) was greater than 100000 nM, the “EC50 HIV RT” value (HIV RT) was “Inactive” and the EC50 (HIV1 d4T-Sensitive) was 860 nM. For the same compound, the EC50 (HIV1 d4T-Resistant) was 3380 nM, the delay in death [7, 11] was “failed to give any detectable delay” and the “delay in tumour appearance” value [7, 11] was “failed to give any detectable delay”.
